Legend:
[1] = target: T1, Alpha-1A adrenergic receptor (Homo sapiens, UniProt P35348); format: functional, cell-based
T1 sequence (P35348 whole entry): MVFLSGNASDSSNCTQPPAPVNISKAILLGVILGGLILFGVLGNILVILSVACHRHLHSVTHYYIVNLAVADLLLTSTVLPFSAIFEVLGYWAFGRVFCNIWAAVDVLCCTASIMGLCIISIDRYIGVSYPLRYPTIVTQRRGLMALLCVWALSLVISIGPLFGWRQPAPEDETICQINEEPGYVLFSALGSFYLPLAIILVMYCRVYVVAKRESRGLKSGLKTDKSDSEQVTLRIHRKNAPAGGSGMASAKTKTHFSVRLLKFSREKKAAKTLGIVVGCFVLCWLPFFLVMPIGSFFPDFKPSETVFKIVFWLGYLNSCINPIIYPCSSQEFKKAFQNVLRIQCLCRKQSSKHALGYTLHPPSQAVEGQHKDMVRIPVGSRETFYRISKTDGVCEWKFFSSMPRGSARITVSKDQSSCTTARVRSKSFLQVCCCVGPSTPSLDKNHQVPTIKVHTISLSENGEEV

[2] = target: T2, Muscarinic acetylcholine receptor M1 (Homo sapiens, UniProt P11229); format: functional, cell-based
T2 sequence (P11229 whole entry): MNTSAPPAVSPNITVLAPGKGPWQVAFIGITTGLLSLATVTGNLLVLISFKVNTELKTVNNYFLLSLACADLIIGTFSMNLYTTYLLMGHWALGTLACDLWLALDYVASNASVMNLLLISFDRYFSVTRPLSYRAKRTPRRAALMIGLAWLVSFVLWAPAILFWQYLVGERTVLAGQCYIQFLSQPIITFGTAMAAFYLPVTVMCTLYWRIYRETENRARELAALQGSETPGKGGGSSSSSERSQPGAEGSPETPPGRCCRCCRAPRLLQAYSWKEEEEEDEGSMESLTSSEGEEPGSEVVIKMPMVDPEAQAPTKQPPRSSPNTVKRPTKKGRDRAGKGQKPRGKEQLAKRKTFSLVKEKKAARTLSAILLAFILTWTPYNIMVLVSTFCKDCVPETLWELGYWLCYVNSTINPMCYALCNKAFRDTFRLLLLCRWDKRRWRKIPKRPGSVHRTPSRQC

[3] = target: Gamma-aminobutyric acid receptor subunit alpha-1/alpha-2/beta-2/gamma-2 (Homo sapiens, UniProt P14867+P18507+P47869+P47870); format: protein-complex assay
B2 bradykinin receptor = target: T3, B2 bradykinin receptor (Homo sapiens, UniProt P30411)
T3 sequence (P30411 whole entry): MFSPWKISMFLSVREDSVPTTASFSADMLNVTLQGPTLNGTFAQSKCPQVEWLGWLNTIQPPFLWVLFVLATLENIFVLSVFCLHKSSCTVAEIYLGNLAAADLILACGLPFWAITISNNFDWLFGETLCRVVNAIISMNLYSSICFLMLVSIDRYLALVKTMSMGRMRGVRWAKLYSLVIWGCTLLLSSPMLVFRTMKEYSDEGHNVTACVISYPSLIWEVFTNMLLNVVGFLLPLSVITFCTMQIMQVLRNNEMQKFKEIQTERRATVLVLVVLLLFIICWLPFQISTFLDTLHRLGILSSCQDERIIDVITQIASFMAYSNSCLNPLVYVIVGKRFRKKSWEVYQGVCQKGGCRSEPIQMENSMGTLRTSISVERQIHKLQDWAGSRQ

Cannabinoid receptor 1 = Cannabinoid receptor 1 (Homo sapiens, UniProt P21554); format: functional, cell-based
Histamine H2 receptor = Histamine H2 receptor (Homo sapiens, UniProt P25021); format: functional, cell-based
[4] = target: 5-hydroxytryptamine receptor 2B (Homo sapiens, UniProt P41595); format: functional, cell-based
Melanocortin receptor 3 = Melanocortin receptor 3 (Homo sapiens, UniProt P41968)
Motilin receptor = Motilin receptor (Homo sapiens, UniProt O43193)
[5] = target: Kappa-type opioid receptor (Homo sapiens, UniProt P41145)
Thromboxane A2 receptor = target: T4, Thromboxane A2 receptor (Homo sapiens, UniProt P21731)
T4 sequence (P21731 whole entry): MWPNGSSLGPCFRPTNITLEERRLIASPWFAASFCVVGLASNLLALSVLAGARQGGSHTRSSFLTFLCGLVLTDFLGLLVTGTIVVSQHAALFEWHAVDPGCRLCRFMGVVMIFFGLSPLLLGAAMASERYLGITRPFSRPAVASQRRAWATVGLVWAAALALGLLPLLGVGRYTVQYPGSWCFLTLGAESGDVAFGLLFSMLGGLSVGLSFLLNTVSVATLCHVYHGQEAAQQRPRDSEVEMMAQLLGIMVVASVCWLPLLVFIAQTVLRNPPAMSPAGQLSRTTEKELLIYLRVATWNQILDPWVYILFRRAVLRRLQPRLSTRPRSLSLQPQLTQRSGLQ

[6] = target: T5, 5-hydroxytryptamine receptor 1A (Homo sapiens, UniProt P08908); format: functional, cell-based
T5 sequence (P08908 whole entry): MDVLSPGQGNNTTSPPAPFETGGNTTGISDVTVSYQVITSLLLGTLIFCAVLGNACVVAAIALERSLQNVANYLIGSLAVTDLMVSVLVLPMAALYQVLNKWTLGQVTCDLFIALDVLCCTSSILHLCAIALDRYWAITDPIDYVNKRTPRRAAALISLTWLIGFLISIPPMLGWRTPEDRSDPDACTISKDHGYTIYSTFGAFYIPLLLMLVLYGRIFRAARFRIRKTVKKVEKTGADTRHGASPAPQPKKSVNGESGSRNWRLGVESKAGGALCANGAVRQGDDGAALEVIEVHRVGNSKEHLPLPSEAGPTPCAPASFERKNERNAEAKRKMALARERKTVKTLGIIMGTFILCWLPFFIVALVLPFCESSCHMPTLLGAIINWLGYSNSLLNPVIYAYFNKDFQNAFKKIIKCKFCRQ
Also: assay procedure not described here.

5-hydroxytryptamine receptor 2B, sequence (P41595 whole entry): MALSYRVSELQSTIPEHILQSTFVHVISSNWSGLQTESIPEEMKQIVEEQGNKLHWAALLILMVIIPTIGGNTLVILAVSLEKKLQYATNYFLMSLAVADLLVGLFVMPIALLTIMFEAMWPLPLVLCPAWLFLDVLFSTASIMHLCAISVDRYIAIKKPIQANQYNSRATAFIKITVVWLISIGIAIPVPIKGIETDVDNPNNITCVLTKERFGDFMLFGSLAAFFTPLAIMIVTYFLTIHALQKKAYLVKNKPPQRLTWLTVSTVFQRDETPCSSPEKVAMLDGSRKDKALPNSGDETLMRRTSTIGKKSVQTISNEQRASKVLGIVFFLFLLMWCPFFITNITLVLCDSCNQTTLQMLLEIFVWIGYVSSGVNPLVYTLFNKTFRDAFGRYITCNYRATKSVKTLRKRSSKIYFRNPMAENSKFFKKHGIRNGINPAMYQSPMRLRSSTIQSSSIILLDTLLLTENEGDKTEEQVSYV
Melanocortin receptor 3, sequence (P41968 whole entry): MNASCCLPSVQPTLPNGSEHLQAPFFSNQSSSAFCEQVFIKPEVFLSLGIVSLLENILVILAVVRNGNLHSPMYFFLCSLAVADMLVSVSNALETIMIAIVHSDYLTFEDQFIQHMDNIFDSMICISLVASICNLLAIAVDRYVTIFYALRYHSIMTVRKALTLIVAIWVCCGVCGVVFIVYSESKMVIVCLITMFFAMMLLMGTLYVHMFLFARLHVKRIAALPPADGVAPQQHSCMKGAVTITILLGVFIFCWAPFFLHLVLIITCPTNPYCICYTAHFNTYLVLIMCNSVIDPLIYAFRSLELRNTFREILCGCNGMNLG
Gamma-aminobutyric acid receptor subunit alpha-1/alpha-2/beta-2/gamma-2, sequence (P14867 whole entry): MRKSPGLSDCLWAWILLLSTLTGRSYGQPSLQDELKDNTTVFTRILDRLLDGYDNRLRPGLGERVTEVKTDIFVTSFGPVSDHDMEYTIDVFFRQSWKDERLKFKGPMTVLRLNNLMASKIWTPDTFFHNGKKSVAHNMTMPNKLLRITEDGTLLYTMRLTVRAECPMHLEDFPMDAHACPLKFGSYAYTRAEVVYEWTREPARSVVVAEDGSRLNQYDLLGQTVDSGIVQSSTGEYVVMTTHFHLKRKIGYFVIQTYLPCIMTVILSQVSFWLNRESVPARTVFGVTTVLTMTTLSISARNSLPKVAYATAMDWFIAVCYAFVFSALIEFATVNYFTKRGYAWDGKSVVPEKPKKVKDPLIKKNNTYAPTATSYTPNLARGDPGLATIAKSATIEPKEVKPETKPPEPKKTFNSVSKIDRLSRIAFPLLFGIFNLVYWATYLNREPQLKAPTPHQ
Gamma-aminobutyric acid receptor subunit alpha-1/alpha-2/beta-2/gamma-2, sequence (P47870 whole entry): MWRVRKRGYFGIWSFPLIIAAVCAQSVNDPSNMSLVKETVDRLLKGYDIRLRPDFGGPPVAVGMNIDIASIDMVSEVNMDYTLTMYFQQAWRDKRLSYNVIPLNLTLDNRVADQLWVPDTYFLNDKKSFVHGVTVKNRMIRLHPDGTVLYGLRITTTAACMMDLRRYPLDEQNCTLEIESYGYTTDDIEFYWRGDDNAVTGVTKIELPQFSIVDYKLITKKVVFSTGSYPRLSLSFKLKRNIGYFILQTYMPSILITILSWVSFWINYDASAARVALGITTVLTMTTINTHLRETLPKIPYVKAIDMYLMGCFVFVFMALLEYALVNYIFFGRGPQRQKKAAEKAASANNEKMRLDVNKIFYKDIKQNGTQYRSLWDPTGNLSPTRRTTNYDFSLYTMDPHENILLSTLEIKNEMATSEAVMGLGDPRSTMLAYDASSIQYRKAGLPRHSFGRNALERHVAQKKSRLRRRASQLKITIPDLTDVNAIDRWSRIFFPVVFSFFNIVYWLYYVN
Gamma-aminobutyric acid receptor subunit alpha-1/alpha-2/beta-2/gamma-2, sequence (P18507 whole entry): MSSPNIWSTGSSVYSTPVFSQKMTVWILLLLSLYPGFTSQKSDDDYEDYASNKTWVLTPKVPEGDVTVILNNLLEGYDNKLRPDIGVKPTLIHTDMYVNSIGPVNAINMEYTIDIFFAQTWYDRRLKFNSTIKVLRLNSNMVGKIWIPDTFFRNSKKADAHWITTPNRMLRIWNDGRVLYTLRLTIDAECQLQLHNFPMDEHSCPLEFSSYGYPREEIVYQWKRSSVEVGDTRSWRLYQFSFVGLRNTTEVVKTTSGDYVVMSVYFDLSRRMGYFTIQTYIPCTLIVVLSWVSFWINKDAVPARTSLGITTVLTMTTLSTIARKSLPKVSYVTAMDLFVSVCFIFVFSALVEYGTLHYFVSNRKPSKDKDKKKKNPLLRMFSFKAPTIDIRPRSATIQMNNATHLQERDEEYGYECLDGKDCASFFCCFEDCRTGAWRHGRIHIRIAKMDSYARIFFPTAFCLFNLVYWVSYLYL
Gamma-aminobutyric acid receptor subunit alpha-1/alpha-2/beta-2/gamma-2, sequence (P47869 whole entry): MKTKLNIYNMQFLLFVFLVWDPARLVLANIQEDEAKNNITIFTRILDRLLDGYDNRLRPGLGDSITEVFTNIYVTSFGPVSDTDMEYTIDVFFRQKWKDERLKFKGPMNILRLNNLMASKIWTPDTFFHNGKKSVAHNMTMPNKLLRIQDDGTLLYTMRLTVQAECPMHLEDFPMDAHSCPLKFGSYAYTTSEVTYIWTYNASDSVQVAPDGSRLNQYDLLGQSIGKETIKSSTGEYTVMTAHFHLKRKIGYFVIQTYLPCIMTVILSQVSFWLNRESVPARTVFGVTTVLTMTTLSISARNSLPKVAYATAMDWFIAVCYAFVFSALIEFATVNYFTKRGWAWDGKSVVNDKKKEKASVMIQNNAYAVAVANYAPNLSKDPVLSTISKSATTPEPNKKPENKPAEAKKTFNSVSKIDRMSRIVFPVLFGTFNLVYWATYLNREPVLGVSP
Motilin receptor, sequence (O43193 whole entry): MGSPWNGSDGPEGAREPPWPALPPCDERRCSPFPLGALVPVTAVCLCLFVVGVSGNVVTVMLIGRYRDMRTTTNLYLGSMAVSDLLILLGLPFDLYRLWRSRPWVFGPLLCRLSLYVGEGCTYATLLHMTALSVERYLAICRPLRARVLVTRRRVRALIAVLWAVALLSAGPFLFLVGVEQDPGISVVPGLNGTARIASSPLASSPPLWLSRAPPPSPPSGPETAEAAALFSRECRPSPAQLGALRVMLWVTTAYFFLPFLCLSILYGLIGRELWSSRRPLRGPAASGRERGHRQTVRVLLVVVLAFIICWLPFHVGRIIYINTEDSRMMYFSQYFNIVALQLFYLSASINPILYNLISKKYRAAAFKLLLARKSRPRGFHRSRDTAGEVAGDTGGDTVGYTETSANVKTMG
Histamine H2 receptor, sequence (P25021 whole entry): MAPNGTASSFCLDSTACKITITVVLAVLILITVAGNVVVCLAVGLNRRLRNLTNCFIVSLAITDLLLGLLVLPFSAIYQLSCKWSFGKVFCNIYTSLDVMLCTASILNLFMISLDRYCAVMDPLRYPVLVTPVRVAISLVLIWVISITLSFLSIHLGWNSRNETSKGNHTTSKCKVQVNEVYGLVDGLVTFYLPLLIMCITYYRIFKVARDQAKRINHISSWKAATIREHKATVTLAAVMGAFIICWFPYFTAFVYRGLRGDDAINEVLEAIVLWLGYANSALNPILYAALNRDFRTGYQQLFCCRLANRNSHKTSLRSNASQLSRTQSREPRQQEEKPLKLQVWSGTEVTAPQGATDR
Kappa-type opioid receptor, sequence (P41145 whole entry): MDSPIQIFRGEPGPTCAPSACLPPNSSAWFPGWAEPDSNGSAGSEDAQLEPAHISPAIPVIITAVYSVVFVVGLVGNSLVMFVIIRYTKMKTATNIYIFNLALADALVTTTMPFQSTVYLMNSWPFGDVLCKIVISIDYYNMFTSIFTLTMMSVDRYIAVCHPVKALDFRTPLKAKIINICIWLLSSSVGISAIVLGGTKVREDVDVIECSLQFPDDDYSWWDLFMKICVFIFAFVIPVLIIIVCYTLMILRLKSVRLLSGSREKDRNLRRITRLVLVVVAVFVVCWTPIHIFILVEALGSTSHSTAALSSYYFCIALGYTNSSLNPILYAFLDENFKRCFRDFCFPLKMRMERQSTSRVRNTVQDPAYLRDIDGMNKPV
Cannabinoid receptor 1, sequence (P21554 whole entry): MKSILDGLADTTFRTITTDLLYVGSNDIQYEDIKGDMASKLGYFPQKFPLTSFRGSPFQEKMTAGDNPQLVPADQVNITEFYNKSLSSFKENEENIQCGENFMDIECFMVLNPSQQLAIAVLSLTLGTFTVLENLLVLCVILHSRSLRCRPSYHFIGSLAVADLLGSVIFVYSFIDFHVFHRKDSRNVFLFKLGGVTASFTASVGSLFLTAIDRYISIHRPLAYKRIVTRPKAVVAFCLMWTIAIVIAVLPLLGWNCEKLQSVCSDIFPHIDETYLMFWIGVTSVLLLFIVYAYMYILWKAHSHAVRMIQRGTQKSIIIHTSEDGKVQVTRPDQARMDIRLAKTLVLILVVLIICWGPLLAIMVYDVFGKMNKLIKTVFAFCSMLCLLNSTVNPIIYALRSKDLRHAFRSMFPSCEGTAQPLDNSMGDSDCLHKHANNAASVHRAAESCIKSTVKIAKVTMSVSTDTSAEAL

SMILES	AC50 [1] [µM]	AC50 [2] [µM]	AC50 [3] [µM]	further results
O=C(O)COc1nn(Cc2ccccc2)c2ccccc12 [BENDAZAC]	> 30	> 30	> 30	–
Cn1c(=O)c2c(ncn2CC(O)CO)n(C)c1=O (configuration not stated) [DYPHYLLINE]	> 30	–	> 30	–
CN(C)C(=O)c1nc(CNC(=O)CN)n(-c2ccc(Cl)cc2C(=O)c2ccccc2Cl)n1 [RILMAZAFONE]	> 30	> 30	> 30	–
NC(=O)NS(=O)(=O)c1ccc(N)cc1 [SULFACARBAMIDE]	> 30	> 30	> 30	–
COc1nccnc1NS(=O)(=O)c1ccc(N)cc1	> 30	> 30	> 30	–
CC(C)(C)C(=O)NCCCC(=O)O [PIVAGABINE]	> 30	> 30	> 30	–
CN(CC(=O)O)C(=N)N [CREATINE]	> 30	> 30	> 30	–
O=C1[C@H]2CCCC[C@H]2C(=O)N1CCCCN1CCN(c2nsc3ccccc23)CC1 [PEROSPIRONE]	0.003	> 30	> 30	–
CN1CCC[C@H]1c1cccnc1 [NICOTINE]	> 30	–	> 30	–
CN(C)CCC(c1ccccc1)c1ccccn1 (configuration not stated) [PHENIRAMINE]	> 30	> 30	> 30	–
CC(C)[N+](C)(CCOC(=O)C1c2ccccc2Oc2ccccc21)C(C)C [PROPANTHELINE]	> 30	> 30	> 30	–
Cc1cc2c(OCC(O)CNC(C)C)cccc2[nH]1 (configuration not stated) [MEPINDOLOL]	> 30	> 30	> 30	–
CC(=O)Oc1ccccc1C(=O)Nc1ncc([N+](=O)[O-])s1 [NITAZOXANIDE]	–	> 30	> 30	AC50 (B2 bradykinin receptor): 4.9 µM; AC50 (Cannabinoid receptor 1): > 30 µM; AC50 (Histamine H2 receptor): > 30 µM; AC50 [4]: 17 µM; AC50 (Melanocortin receptor 3): 14 µM; AC50 (Motilin receptor): 13 µM; AC50 [5]: > 30 µM; AC50 (Thromboxane A2 receptor): 5 µM
CCCCCCCCCCC[C@@H](C[C@@H]1OC(=O)[C@H]1CCCCCC)OC(=O)[C@H](CC(C)C)NC=O [ORLISTAT]	> 30	> 30	> 30	–
O=C(O)CCCc1ccc(N(CCCl)CCCl)cc1 [CHLORAMBUCIL]	> 30	–	22.1	–
O=S(=O)(O)CCS [2-MERCAPTOETHANESULFONIC ACID]	> 30	–	> 30	–
CCCCCCCCCCCCCCCC(=O)OC/C=C(C)/C=C/C=C(C)/C=C/C1=C(C)CCCC1(C)C [VITAMIN A PALMITATE]	> 30	> 30	> 30	–
C#Cc1cccc(Nc2ncnc3cc(OCCOC)c(OCCOC)cc23)c1 [ERLOTINIB]	> 30	1.64	> 30	AC50 (Cannabinoid receptor 1): > 30 µM; AC50 [6]: > 30 µM; AC50 [4]: > 30 µM; AC50 (Melanocortin receptor 3): > 30 µM; AC50 (Motilin receptor): > 30 µM
CN(C)CCCN1C(=O)c2cc([N+](=O)[O-])ccc2Oc2ccccc21	> 30	> 30	> 30	–
CC(=O)/N=c1/sc(S(N)(=O)=O)nn1C [METHAZOLAMIDE]	> 30	> 30	> 30	AC50 (B2 bradykinin receptor): > 10 µM; AC50 (Histamine H2 receptor): > 10 µM; AC50 [6]: > 10 µM; AC50 [4]: > 10 µM; AC50 (Melanocortin receptor 3): > 10 µM; AC50 (Motilin receptor): > 10 µM; AC50 [5]: > 10 µM; AC50 (Thromboxane A2 receptor): > 10 µM
CCOc1cc(N)c(Cl)cc1C(=O)NCC1CN(Cc2ccc(F)cc2)CCO1 (configuration not stated) [MOSAPRIDE]	> 30	–	> 30	–
CCOc1ccc2ccccc2c1C(=O)N[C@@H]1C(=O)N2[C@@H]1SC(C)(C)[C@@H]2C(=O)O [NAFCILLIN]	> 30	> 30	> 30	–
CCCCCCCCNC(C)C(O)c1ccc(SC(C)C)cc1 (configuration not stated) [SULOCTIDIL]	–	–	> 10	–

Reference: ChEMBL document CHEMBL5291721, “A preclinical secondary pharmacology resource illuminates target-adverse drug reaction associations of marketed drugs” (Nat Commun, 2023)
